Results taken from patent publication US20060035810A1, “Regulation of ins(3456)p4 signalling by a reversible kinase phosphatase and methods and compositions related thereto” (priority 2002, published 2006).

What was measured:
Type in all cases: cell-based, mouse
[1] = system: insulin granules in pancreatic β-cells; experiment: Insulin granule acidification, LSG fluorescence with patch-clamp and confocal imaging
Experimental: FIG. 6. Ins(3,4,5,6)P4 inhibits acidification of insulin granules in pancreatic β-cells. FIG. 6A, Representative time-courses for intragranular acidification, monitored by increased fluorescence of LSG before and after establishment of the standard whole-cell configuration (see arrow) and the effect of perfusion of intracellular medium (containing 0.4 μM [Ca^2+]free except where “no calcium” is indicated; see Methods) plus either 0 (“control”), 1 or 10 μM Ins(3,4,5,6)P4. FIG. 6B, Mean (±SE) fluorescence changes (n-5-11), during the 60 s that followed establishment of the standard whole-cell configuration, for cells perfused with inositol phosphates as indicated at the base of the bar graph. Where indicated, DIDS (100 μM) were added to the bath solution 30 min prior to patching the cells. Statistical significance was evaluated by Student's unpaired t-test (* P<0.01).
The inositol phosphates used in this study were all purchased from CellSignals Inc (Lexington, Ky.). Insulin granule pH were monitored by combining the patch-clamp technique with confocal imaging. Pancreatic β-cells, isolated and cultured on glass coverslips for 2-24 h, were voltage clamped at −70 mV, as previously described (B9). LysoSensor-Green™ DND-189 (1 μM; Molecular Probes, Leiden, The Netherlands) was added during the last 30 min of cell culture and was also included in the extracellular buffer (B9) that continuously perfused the experimental chamber. All LSG experiments were performed at 20° C. to prevent exocytosis that otherwise interfered with the optical measurements (15). LSG fluorescence was excited using the 488 nm-line of a Zeiss 510 confocal microscope. The emitted light was collected with a 63×/1.3 NA oil objective and a >505 nm filter. Laser scanning was performed with low pixel resolution (128×128) and with 6 s intervals to minimize photo-bleaching. After gigaseal formation, it was ascertained that LSG fluorescence was stable for at least 30 s before the experiment commenced. The intracellular electrode solution contained: 125 mM K-glutamate, 10 mM KCl, 1 0 mM NaCl, 1 mM MgCl2, 5 mM HEPES, 3 mM Mg-ATP, 0.1 mM cAMP, 10 mM EGTA and 7 mM CaCl2 (˜0.4 μM free [Ca^2+]I; pH 7.2 with KOH). In some experiments, marked “no calcium”, there was no added Ca^2+, and the concentration of EGTA was 50 μM. Whole-cell capacitance measurements (at 33° C.) were made with the cells clamped at −70 mV, and the standard whole-cell configuration was established at t=0. Capacitance recordings were made using an EPC-7 patch-clamp amplifier equipped with the software Pulse (version 8.4 and later) and the X-chart extension (HEKA Elektronik, Lambrecht/Pfalz, Germany) (B9).

[2] = system: insulin granules in pancreatic β-cells; experiment: CCCP-mediated de-acidification of insulin granules, LSG fluorescence
Experimental: FIG. 7A, Representative confocal images of LSG fluorescence immediately before (zero) and 60 s after perfusion of cells with intracellular buffer supplemented with 100 μM of the protonophore, CCCP, in the absence or presence of 10 μM Ins(3,4,5,6)P4. FIG. 7B, Representative time-courses for changes in LSG-fluorescence ([F/F0] as % of zero time) immediately after establishing a standard whole-cell configuration as in panel A, with intracellular medium (containing 0.4 μM [Ca^2+]free except where “no calcium” is indicated; see Methods) plus 100 μM CCCP, together with either 0 (“control”) or 10 μM Ins(3,4,5,6)P4. FIG. 7C, Mean (±SE) fluorescence changes (n=4-6), during the 60 s that followed establishment of the standard whole-cell configuration, for cells perfused with intracellular medium supplemented with inositol phosphates as indicated at the base of the bar graph ([…]).
The inositol phosphates used in this study were all purchased from CellSignals Inc (Lexington, Ky.). Insulin granule pH were monitored by combining the patch-clamp technique with confocal imaging. Pancreatic β-cells, isolated and cultured on glass coverslips for 2-24 h, were voltage clamped at −70 mV, as previously described (B9). LysoSensor-Green™ DND-189 (1 μM; Molecular Probes, Leiden, The Netherlands) was added during the last 30 min of cell culture and was also included in the extracellular buffer (B9) that continuously perfused the experimental chamber. All LSG experiments were performed at 20° C. to prevent exocytosis that otherwise interfered with the optical measurements (15). LSG fluorescence was excited using the 488 nm-line of a Zeiss 510 confocal microscope. The emitted light was collected with a 63×/1.3 NA oil objective and a >505 nm filter. Laser scanning was performed with low pixel resolution (128×128) and with 6 s intervals to minimize photo-bleaching. After gigaseal formation, it was ascertained that LSG fluorescence was stable for at least 30 s before the experiment commenced. The intracellular electrode solution contained: 125 mM K-glutamate, 10 mM KCl, 1 0 mM NaCl, 1 mM MgCl2, 5 mM HEPES, 3 mM Mg-ATP, 0.1 mM cAMP, 10 mM EGTA and 7 mM CaCl2 (˜0.4 μM free [Ca^2+]I; pH 7.2 with KOH). In some experiments, marked “no calcium”, there was no added Ca^2+, and the concentration of EGTA was 50 μM. Whole-cell capacitance measurements (at 33° C.) were made with the cells clamped at −70 mV, and the standard whole-cell configuration was established at t=0. Capacitance recordings were made using an EPC-7 patch-clamp amplifier equipped with the software Pulse (version 8.4 and later) and the X-chart extension (HEKA Elektronik, Lambrecht/Pfalz, Germany) (B9). […]

pancreatic β-cells = experiment: Ca2+-induced exocytosis, whole-cell capacitance recordings
Experimental: FIG. 8A, Representative increases in cell capacitance (ΔC), reflecting exocytosis (as is described in Barg et al., J. Cell Sci 114: 2145-2154 (2001)), elicited by intracellular perfusion with intracellular solution (0.4 μM [Ca^2+]free), containing either 0 (“control”) or 10 μM Ins(3,4,5,6)P4. FIG. 8B, Average rates of capacitance increase (ΔC/Δt) during the first minute of recording, as described for FIG. 8A, in 5-17 experiments. FIG. 8C, Representative increases in ΔC, measured under the same conditions as in FIG. 8A, except that the [Ca^2+]free was 1.5 μM. FIG. 8D, Average rates of capacitance increase (ΔC/Δt) during the first minute of recording, as described for FIG. 8C, in 6-11 experiments.
The inositol phosphates used in this study were all purchased from CellSignals Inc (Lexington, Ky.). Insulin granule pH were monitored by combining the patch-clamp technique with confocal imaging. Pancreatic β-cells, isolated and cultured on glass coverslips for 2-24 h, were voltage clamped at −70 mV, as previously described (B9). LysoSensor-Green™ DND-189 (1 μM; Molecular Probes, Leiden, The Netherlands) was added during the last 30 min of cell culture and was also included in the extracellular buffer (B9) that continuously perfused the experimental chamber. All LSG experiments were performed at 20° C. to prevent exocytosis that otherwise interfered with the optical measurements (15). LSG fluorescence was excited using the 488 nm-line of a Zeiss 510 confocal microscope. The emitted light was collected with a 63×/1.3 NA oil objective and a >505 nm filter. Laser scanning was performed with low pixel resolution (128×128) and with 6 s intervals to minimize photo-bleaching. After gigaseal formation, it was ascertained that LSG fluorescence was stable for at least 30 s before the experiment commenced. The intracellular electrode solution contained: 125 mM K-glutamate, 10 mM KCl, 1 0 mM NaCl, 1 mM MgCl2, 5 mM HEPES, 3 mM Mg-ATP, 0.1 mM cAMP, 10 mM EGTA and 7 mM CaCl2 (˜0.4 μM free [Ca^2+]I; pH 7.2 with KOH). In some experiments, marked “no calcium”, there was no added Ca^2+, and the concentration of EGTA was 50 μM. Whole-cell capacitance measurements (at 33° C.) were made with the cells clamped at −70 mV, and the standard whole-cell configuration was established at t=0. […]
The degree of insulin granule acidification in pancreatic β-cells has been proposed to affect their fusogenic potential, thereby influencing the rate of insulin secretion by exocytosis (B9;B16). So we next investigated if the interaction of Ins(3,4,5,6)P4 with insulin granule Cl^− channels affected exocytosis, which we recorded by monitoring capacitance of β-cells with the whole-cell patch-clamp technique (B16). […]

Structure (SMILES) | effect on vesicle acidification ([1]; 100 μM) | effect on rate of CCCP-promoted H+ efflux out of the granule ([2]; 100 μM, 100 μM CCCP) | effect on exocytosis (pancreatic β-cells; 100 μM, 0.4 μM [Ca2+]free) | effect on granule acidification ([1]; 1 μM (resting level)) | reduction of the rate of acidification of the granular interior ([1]; 10 μM perfused into the cell, 0.4 μM [Ca2+]free) | effect on CCCP-induced collapse of the pH gradient ([2]; 1 μM (resting level)) | effect on CCCP-induced H+ flux ([2]; 10 μM, 100 μM CCCP) | effect on exocytosis (pancreatic β-cells; 1 μM, 0.4 μM [Ca2+]free) | effect on rate of exocytosis (pancreatic β-cells; 1.5 μM [Ca2+]free) | inhibition at 10 µM (pancreatic β-cells; Mus musculus, 10 μM, 0.4 μM [Ca2+]free)
O=P(O)(O)OC1[C@@H](OP(=O)(O)O)[C@H](OP(=O)(O)O)C(O)[C@H](OP(=O)(O)O)[C@H]1OP(=O)(O)O (stereo partly shown) [Ins(1,3,4,5,6)P5, inositol 1,3,4,5,6-pentakisphosphate] | neither 100 μM Ins(1,4,5,6)P4 nor 100 μM Ins(1,3,4,5,6)P5 affected | no effect | no effect | – | – | – | – | – | – | –
O=P(O)(O)OC1C(O)C(O)C(OP(=O)(O)O)C(OP(=O)(O)O)C1OP(=O)(O)O (stereo not shown) [Ins(3,4,5,6)P4, inositol 3,4,5,6-tetrakisphosphate] | – | – | – | ineffective | approximately 65% | failed to affect | inhibitory effect | ineffective | did not affect | ~50%
